Assay results from patent US10178866B2, “N-halamine containing fibrous compositions and uses thereof” (priority 2014, dated 2019).
Converted amounts (≈) assume the structure as drawn.

Key:
[1] = solubility; assay type: physicochemical; conditions: 22° C.
Description: The precursor 2,2,5,5-tetramethyl-4-imidazolidinone can be prepared according to the method outlined in Tsao or in Worley based upon oxidation of the corresponding thione with hydrogen peroxide in basic solution. The thione can be prepared by the method of Christian (see “4-imidazolidinethiones,” J. Org. Chem., 1957; 22:396), which entails reaction of sodium cyanide, ammonium chloride, ammonium sulfide, and acetone in aqueous solution. […] Compound I in its pure form contains 20.1 percent by weight oxidative chlorine. […] However, the compound is much more soluble in ethyl or isopropyl alcohol, such that a solution greater than 5000 mg/L oxidative chlorine can easily be obtained.

[2] = test system: Escherichia coli O157:H7 ATCC 43895; assay: sandwich contact test, polypropylene nonwoven face-piece material; assay type: cell-based; conditions: inoculum 6.10 log
Protocol: (§1) Compound I (1-chloro-2,2,5,5-tetramethyl-imidazolindinone) at 1 wt %) was dissolved in ethyl alcohol solution at room temperature, and then 300 cm^2 pieces of polypropylene nonwoven fabrics were soaked in the solution for 10 minutes. The fabrics were then padded through a laboratory wringer (Birch Brothers Southern, Waxhaw, N.C., U.S.A.) at low pressure settings. This procedure was followed by drying the fabrics at room temperature for 24 hours. The control fabrics were untreated 22 g/m^2 and 50 g/m^2 polypropylene nonwovens.
(§2) Two types of tests were conducted in order to determine the biocidal efficacy of the face mask embodiments. Staphylococcus aureus (S. aureus, ATCC 6538) was used as a Gram-positive bacterium and Escherichia coli(E. coli O157:H7, ATCC 43895) was used as a Gram-negative bacterium in order to challenge the treated (impregnated with compound I) and non-treated (control) fabrics.
(§3) In the first method, a “sandwich test” was used (see Worley et al., “Novel N-halamine Siloxane Monomers and Polymers for Preparing Biocidal Coatings,” Surf Coat. Int., Part B, 2005; 88:93). In this procedure, bacteria were suspended in 100 μM phosphate buffer (pH 7) to produce a suspension of known concentration of bacteria (colony forming units, CFU/mL). Then, an aliquot of 25 μL of this suspension was placed in the center of a 2.54 cm square swatch, and a second identical swatch was placed on top. Both swatches were covered by a sterile weight to ensure sufficient contact with the bacteria. After predetermined contact times, samples were quenched by 5.0 mL of sterile 0.02 N sodium thiosulfate solution to neutralize the oxidative chlorine and thus terminate the disinfection action. Samples were vortexed for 2 minutes, and then serial dilutions were prepared using pH 7, 100 μM phosphate buffer and plated on Trypticase soy agar plates. After incubating the plates at 37° C. for 24 hours, bacterial colonies were counted for the biocidal efficacy analysis. For each contact time a single fabric swatch sandwich was vortexed in a quenching solution to wash the bacteria into a suspension which was immediately plated into duplicate serial dilutions followed by incubation and counting the viable colonies of bacteria. All experiments were performed at least twice (on different days) using different bacterial inocula.
(§4) Antimicrobial efficacy of the mask materials was analyzed by the sandwich contact test method. The antimicrobial efficacies of the treated (impregnated with compound I) and non-treated (control) swatches were evaluated by challenging both types of fabrics against S. aureus and E. coli O157:H7 where the bacteria inoculum population was 1.80×10^6 CFU and 1.27×10^6 CFU, respectively. In Table 2, antimicrobial results are summarized at different contact time intervals.

[3] = test system: Staphylococcus aureus ATCC 6538; assay: as above; assay type: cell-based; conditions: inoculum 6.26 log
Protocol: as §1, §2, §3, §4

[4] = test system: Escherichia coli O157:H7 ATCC 43895; assay: sandwich test, gauze pads (wound dressing); assay type: cell-based; conditions: chlorine loading 0.47 ± 0.01 wt %, inoculum 5.86 logs
Protocol: (§5) Compound I at a concentration of 1% by weight was dissolved in ethyl alcohol at room temperature. Non-stick gauze pads sized 20.3×7.6 cm (8×3 inch) obtained from Curad® were soaked in the solution for 10 minutes. The gauze pads were then passed through a laboratory wringer (Birch Brothers Southern, Waxhaw, N.C., U.S.A.) at low pressure settings. This procedure was followed by drying the samples at room temperature overnight. The titrated oxidative chlorine loading of the gauze pads was 0.47±0.01 wt %.
(§6) Gauze pads impregnated with compound I and non-impregnated sterile gauze pads (used as received as controls) were challenged with Staphylococcus aureus (S. aureus, ATCC 6538), Escherichia coli(E. coli O157:H7, ATCC 43895), and Pseudomonas aeruginosa (P. aeruginosa, ATCC 27853). The bacteria were suspended in 100 μM phosphate buffer (pH 7) to produce a suspension of known population (colony forming units, CFU/mL). Then, an aliquot of 25 μL of this suspension was placed in the center of a 2.54×2.54 cm^2 gauze swatch, and a second identical swatch was placed on top. Both swatches were covered by a sterile weight to ensure sufficient contact with the bacteria. After predetermined contact times, samples were quenched by 5.0 mL of sterile 0.02 N sodium thiosulfate solution to neutralize the oxidative chlorine and thus terminate the disinfection action. Samples were vortexed for 2 minutes, and then serial dilutions were prepared using pH 7, 100 μM phosphate buffer and plated on Trypticase soy agar plates. After the plates were incubated at 37° C. for 24 hours, viable bacterial colonies were counted for the biocidal efficacy analysis.

[5] = test system: Pseudomonas aeruginosa ATCC 27853; assay: sandwich test, gauze pads (wound dressing); assay type: cell-based; conditions: chlorine loading 0.47 ± 0.01 wt %, inoculum 6.12 logs
Protocol: as §5, §6

[6] = test system: Staphylococcus aureus ATCC 6538; assay: sandwich test, gauze pads (wound dressing); assay type: cell-based; conditions: chlorine loading 0.47 ± 0.01 wt %, inoculum 6.00 logs
Protocol: as §5, §6

[7] = 22 g/m^2 fabric, Cl^+ % = 0.52, contact time 5 min
[8] = 22 g/m^2 fabric, Cl^+ % = 0.52, contact time 10 min
[9] = 22 g/m^2 fabric, Cl^+ % = 0.52, contact time 15 min
[10] = 22 g/m^2 fabric, Cl^+ % = 0.52, contact time 30 min
[11] = 50 g/m^2 fabric, Cl^+ % = 0.52, contact time 5 min
[12] = 50 g/m^2 fabric, Cl^+ % = 0.52, contact time 10 min
[13] = 50 g/m^2 fabric, Cl^+ % = 0.52, contact time 15 min
[14] = 50 g/m^2 fabric, Cl^+ % = 0.52, contact time 30 min
[15] = contact time 1 min, listed as compound I

With `CC1(C)NC(=O)C(C)(C)N1Cl` [Compound I, 1-chloro-2,2,5,5-tetramethyl-4-imidazolidinone] the solubility in water [1] was 1930 µg/mL (≈ 10.9 mM), the “weight percent of oxidative chlorine under saturated conditions” value ([1]; water) was 0.0388 weight percent and the “Bacterial reduction (log) E. coli” value [2, 7] was 3.68 log. The “Bacterial reduction (log) E. coli” value [2, 8] was 6.10 log, the “Bacterial reduction (log) E. coli” value [2, 9] was 6.10 log and the “Bacterial reduction (log) E. coli” value [2, 10] was 6.10 log. For the same compound, the “Bacterial reduction (log) E. coli” value [2, 11] was 3.80 log, the “Bacterial reduction (log) E. coli” value [2, 12] was 6.10 log and the “Bacterial reduction (log) E. coli” value [2, 13] was 6.10 log. For the same compound, the “Bacterial reduction (log) E. coli” value [2, 14] was 6.10 log, the “Bacterial reduction (log) S. aureus” value [3, 7] was 4.13 log and the “Bacterial reduction (log) S. aureus” value [3, 8] was 6.26 log. The “Bacterial reduction (log) S. aureus” value [3, 9] was 6.26 log, the “Bacterial reduction (log) S. aureus” value [3, 10] was 6.26 log and the “Bacterial reduction (log) S. aureus” value [3, 11] was 6.26 log. For the same compound, the “Bacterial reduction (log) S. aureus” value [3, 12] was 6.26 log, the “Bacterial reduction (log) S. aureus” value [3, 13] was 6.26 log and the “Bacterial reduction (log) S. aureus” value [3, 14] was 6.26 log. The “Bacterial Reduction (log) E. coli O157:H7” value ([4]; contact time 1 min) was 5.86 log, the “Bacterial Reduction (log) E. coli O157:H7” value [4, 15] was “about 6 log” and the “Bacterial Reduction (log) E. coli O157:H7” value ([4]; contact time 5 min) was 5.86 log. The “Bacterial Reduction (log) E. coli O157:H7” value ([4]; contact time 10 min) was 5.86 log, the “Bacterial Reduction (log) E. coli O157:H7” value ([4]; contact time 30 min) was 5.86 log and the “Bacterial Reduction (log) P. aeruginosa” value ([5]; contact time 1 min) was 6.12 log. For the same compound, the “Bacterial Reduction (log) P. aeruginosa” value [5, 15] was “about 6 log”, the “Bacterial Reduction (log) P. aeruginosa” value ([5]; contact time 5 min) was 6.12 log and the “Bacterial Reduction (log) P. aeruginosa” value ([5]; contact time 10 min) was 6.12 log. For the same compound, the “Bacterial Reduction (log) P. aeruginosa” value ([5]; contact time 30 min) was 6.12 log, the “Bacterial reduction (log) S. aureus” value ([6]; contact time 1 min) was 3.07 log and the “Bacterial reduction (log) S. aureus” value ([6]; contact time 5 min) was 6.00 log. The “Bacterial reduction (log) S. aureus” value ([6]; contact time 10 min) was 6.00 log and the “Bacterial reduction (log) S. aureus” value ([6]; contact time 30 min) was 6.00 log.
